These are literature values, as cited in US10720228B2, “Method and system for testing of active molecules using molecular simulation of skin membrane” (Tata Consultancy Services Limited, priority 2016, dated 2020).

For the series the following is noted: 323 K.

With `O` [water], the “experimentally observed free energy of water solvation in hexadecane” value is 5.98 kcal/mol.
